Reference: patent US4021545A, “Complement inhibitors” (priority 1976, dated 1977)
Values joined by “and” are separate entries in the source; they are usually repeats but may differ in a detail not shown here. Identical values can stand only once.

Columns and labels:
[1] = system: complement in pool of guinea pig serum; assay: Cap 50 Test; format: biochemical; conditions: in vitro, undiluted guinea pig serum, capillary tube assay
Method: (§1) This test measures the ability of activated human C1 to destroy fluid phase human C2 in the presence of C4 and appropriate dilutions of the test compound. […] Inhibition of the shunt pathway results in failure of lysis; (iv) Forssman Test -- Here, the well known complement dependent lesion, Forssman vasculitis, is produced in guinea pigs by intradermal injection of rabbit anti-Forssman antiserum. […] The complement level is determined in undiluted serum by the capillary tube method of U.S. Pat. No. 3,876,376 and compared to undosed control guinea pigs; and (vii) Cap 50 Test -- Here, appropriate amounts of the test compound are added to a pool of guinea pig serum in vitro, after which the undiluted serum capillary tube assay referred to above is run.

[2] = system: late components of human complement (C3-C9); assay: Test, Code 035 (C3-C9 inhibitor); format: biochemical; conditions: serial two-fold dilution assay; higher well number indicates higher activity; lysis of EAC 142
Method: as §1

whole complement = conditions: 200 mg/kg, percent inhibition of serum complement vs simultaneous controls
Method: With reference to Table I, guinea pigs weighing about 300 g were dosed intravenously (IV) or intraperitoneally (IP) with 200 mg/kg of the test compound dissolved in saline and adjusted to pH 7-8. One hour after dosing, the guinea pigs were decapitated, blood was collected and the serum separated. The serum was tested for whole complement using the capillary tube assay. Percent inhibition was calculated by comparison with simultaneous controls.

[3] = system: shunt pathway activated by cobra venom factor; format: cell-based; conditions: serial two-fold dilution assay; higher well number indicates higher activity; human erythrocytes in autologous serum
Method: as §1

activated human C1 = assay: Test, Code 026 (C1 inhibitor); format: biochemical; conditions: serial two-fold dilution assay; higher well number indicates higher activity
Method: as §1

Row | Substance | Cap 50 [1] | C-Late 035 [2] | In Vivo Activity Guinea Pig (IV) 2 Hr. (whole complement; 2 Hr.) | In Vivo Activity Guinea Pig (IV) 30 Hr. (whole complement; 30 Hr.) | In Vivo Activity Guinea Pig (IV) 120 Hr. (whole complement; 120 Hr.) | Shunt Inhibit. 036 [3] [wells] | Cl 026 (activated human C1)
1 | Inulin, poly(H-sulfate)salt with triethylamine | 160 | 5 wells | -97 | -95 | -91 | 5 | 8 wells
2 | Inulin, poly(H-sulfate)salt with trimethylamine | 131 | 6 wells |  |  |  | 5 | 8 wells
3 | Inulin, poly(H-sulfate)sodium salt [INULIN, POLY(H-SULFATE) SODIUM SALT] | 100 and 94 and 92 | 5 wells and 7 wells |  |  |  | 5 | 7 wells and 10 wells
